According to patent US12077534B2, “Aza-heterobicyclic inhibitors of MAT2A and methods of use for treating cancer” (Les Laboratoires Servier SAS, priority 2018, dated 2024):
pIC50: −log10 of the molar value.

How the values were obtained:
MAT2A homodimer = target: T1, MAT2A homodimer (Homo sapiens, UniProt P31153); assay: MAT2A biochemical assay (phosphate release, PiColorLock Gold); conditions: recombinant MAT2A homodimer, 60 min pre-incubation, 25° C.; read-out: Enzyme Inhibition
T1 construct: inferred from Ni sepharose purification and imidazole elution; made in house; host or cells: SF9 insect cells, recombinant baculovirus (Bac to Bac, pFASTBAC1)
T1 sequence (P31153 whole entry): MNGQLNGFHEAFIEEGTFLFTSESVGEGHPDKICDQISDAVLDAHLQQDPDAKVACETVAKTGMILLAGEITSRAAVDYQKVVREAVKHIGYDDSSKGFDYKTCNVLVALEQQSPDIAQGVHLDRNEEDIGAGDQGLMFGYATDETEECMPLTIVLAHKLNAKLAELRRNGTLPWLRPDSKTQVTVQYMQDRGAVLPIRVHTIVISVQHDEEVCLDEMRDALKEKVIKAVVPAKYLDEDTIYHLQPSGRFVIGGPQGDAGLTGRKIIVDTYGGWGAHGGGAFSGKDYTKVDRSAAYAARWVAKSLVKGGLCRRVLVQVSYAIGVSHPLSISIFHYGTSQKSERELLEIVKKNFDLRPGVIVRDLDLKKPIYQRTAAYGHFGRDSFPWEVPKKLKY
Method: Mat2A protein was expressed by recombinant baculovirus in SF9 infected cells using the Bac to Bac system cloned into the pFASTBAC1 vector (Invitrogen, Carlsbad, CA). Recombinant MAT2A was isolated from the cell lysate of 150 g of infected cells using HP Ni sepharose column chromatography. Recombinant MAT2A homodimer was eluted with 250 and 500 mM imidazole, and fractions containing MAT2A were identified by sodium dodecyl sulfate polyacrylamide gel electrophoresis and pooled.
For determination of the inhibitory potency of compounds against the MAT2A homodimer, protein was diluted to 4 μg/mL in assay buffer (50 mM Tris, pH 8.0, 50 mM KCl, 15 mM MgCl2, 0.3 mM EDTA, 0.005% [w/v] bovine serum albumin [BSA]). Test compound was prepared in 100% dimethyl sulfoxide (DMSO) at 50× the desired final concentration. A 1 μL volume of compound dilution was added to 40 μL of enzyme dilution and the mixture was allowed to equilibrate for 60 minutes at 25° C. The enzymatic assay was initiated by the addition of 10 μL of substrate mix (500 μM ATP, pH 7.0, 400 μM L-methionine in 1× assay buffer), and the mixture was incubated for a further 60 minutes at 25° C. The reaction was halted and the liberated phosphate released by the enzyme in stoichiometric amounts by the production of S-adenosyl methionine (SAM) was measured using the PiColorLock Gold kit (Innova Biosciences, UK). Absolute product amounts were determined by comparison to a standard curve of potassium phosphate buffer, pH 8.0.

[1] = test system: MAT2A activity (SAM) in HCT116 cells with deleted MTAP gene; assay: Cellular assay of target engagement (SAM) by LC-MS/MS; type: cell-based; conditions: Homo sapiens, HCT-116; HCT116 MTAP −/−, 72 hrs; read-out: Cell 72 h SAM Inhibition (MTAP −/−)
Method: Measurement of MAT2A activity in cells was made by direct quantitation of the abundance of the product of its enzymatic activity, SAM. Cancer cells were treated with candidate MAT2A inhibitors for a suitable incubation period, and the cells were then lysed using a reagent which quenched any further enzyme activity. Soluble metabolites including SAM were collected and SAM itself was directly measured from the lysate using quantitative LC-MS/MS.
A typical assay was performed using an HCT116 human colon carcinoma cell line which was genetically engineered to delete the MTAP gene (commercially available from Horizon Discovery). This cell line was utilized because it was determined that loss of the MTAP gene predicts sensitivity to MAT2A inhibitors. Cells were plated in 96-well dishes at appropriate cell density. Following 24 hours, cells were then treated with the candidate MAT2A inhibitor. Prior to addition to cells, the compound was first serially diluted in 100% DMSO, typically as a 3-fold serial dilution starting at 500× top dose with 10 dose points including DMSO only control. Compound was then transferred to a working stock plate in cell culture media by adding 5 μL of compound in DMSO to 495 μL of cell culture media. This working stock was then added to cells via a further 5-fold dilution, by adding 25 μL of working stock to 100 μL of cells in culture media. Following compound addition, cells were incubated at 37° C./5% CO2 for 72 hrs.
To quantitate SAM levels following compound treatment, cells were gently washed once in ammonium carbonate buffer (75 mM at pH 7.4), placed on dry ice, and lysed with metabolite extraction buffer (80% cold methanol and 20% water (v/v) with acetic acid at 1M final concentration with 200 ng/mL deuterated d3-SAM as internal control). Following centrifugation at 4° C. at 3,200 rpm for 30 minutes, the supernatant was collected and stored at −80° C. until analysis by Liquid Chromatography with tandem Mass Spectrometry (LC-MS/MS). LC-MS/MS analysis was performed using an API6500 Mass Spectrometer (Sciex, Framingham, MA, USA) operating in positive ion spray mode and equipped with a Waters UPLC Acquity (Waters, Milford, MA, USA) BEH Amide column. Multiple Reaction Monitoring data was acquired for SAM and the d3-SAM standard, using a mass transition pair at m/z 399.2→250.1 and 402.2→250.1, respectively. In a typical LC-MS/MS analysis, the initial flow rate was 0.5 ml/min of 25% mobile phase A (acetonitrile and water at 5:95 (v/v) with 1% formic acid and 10 mM ammonium acetate) and 75% mobile phase B (acetonitrile and water at 95:5 (v/v) with 1% formic acid and 10 mM ammonium acetate), 0.2-0.5 minutes with 75%-35% mobile phase B, 25%-65% mobile phase A, at 0.5 min 65% mobile phase A and 35% mobile phase B, 1.0-1.1 minutes with 35%-75% mobile phase B, 65%-25% mobile phase A, at 1.1 min 25% mobile phase A and 75% mobile phase B with a total run time of 1.5 minutes.

HCT116 MTAP−/− = assay: Inhibition of cellular proliferation (Cell Titer Glo), HCT116 MTAP-/-; type: cell-based; conditions: Homo sapiens, HCT-116, 96 h, 4 days, read-out: 4 Day Relative Growth Inhibition (MTAP −/−)
Method: (§1) Test compound impact on cancer cell growth was assessed by treating cancer cells with compound for 4 days and then measuring proliferation using an ATP-based cell proliferation readout (Cell Titer Glo, Promega Corporation).
(§2) In a typical assay an isogenic pair of HCT116 human colon carcinoma cell lines which vary only in MTAP deletion status (HCT116 MTAP+/+ and HCT116 MTAP−/−) were plated in 96-well dishes at appropriate cell density. Following 24 hours, cells were then treated with the candidate MAT2A inhibitor. Prior to addition to cells, the compound was first serially diluted in 100% DMSO, typically as a 3-fold serial dilution starting at 500× top dose with 10 dose points including DMSO only control. Compound was then transferred to a working stock plate in cell culture media by adding 5 μL of compound in DMSO to 495 μL of cell culture media. This working stock was then added to cells via a further 5-fold dilution, by adding 25 μL of working stock to 100 μL of cells in culture media. Following compound addition, cells were incubated at 37° C./5% CO2 for 4 days.
(§3) To measure inhibition of cellular proliferation, cells were allowed to equilibrate to room temperature for 30 minutes, and were then treated with 125 μL of Cell Titer Glo reagent. The plate was then covered with aluminum foil and shaken for 15 minutes to ensure complete mixing and full cell lysis. Luminescent signal was then measured using a plate-based luminometer Veritas version 1.9.2 using ATP standard curve to confirm assay reproducibility from run to run. This luminescence measure was converted to a proliferation index by subtracting from each data point the ATP luminescence signal measured from a bank (no cells) well and dividing by the ATP luminescence signal measured in 0.2% DMSO control well adjusted for signal in blank well. Compound activity was then represented as a percentage change in proliferation relative to a within-plate DMSO control against log 10 of compound concentration in molar (M) units.

HCT116 MTAP+/+ = assay: Inhibition of cellular proliferation (Cell Titer Glo), HCT116 MTAP+/+; type: cell-based; conditions: Homo sapiens, HCT-116, 96 h, 4 days, read-out: 4 Day Relative Growth Inhibition (MTAP +/+)
Method: as §1, §2, §3

Structure (SMILES): CCOc1ccc2nn(-c3ccc4ncsc4c3)c(=O)c(-c3ccc(OC(F)F)cc3)c2n1 [Example 145]
- pIC50 (MAT2A homodimer): > 7.00
- pIC50 [1]: > 7.00
- pIC50 (HCT116 MTAP−/−): > 7.00
- pIC50 (HCT116 MTAP+/+): ≤ 6.00

Structure (SMILES): CC(C)Oc1ccc2nn(-c3ccc4ncsc4c3)c(=O)c(-c3ccc(OC(F)F)cc3)c2n1 [Example 146]
- pIC50 (MAT2A homodimer): > 7.00
- pIC50 [1]: > 7.00
- pIC50 (HCT116 MTAP−/−): > 7.00
- pIC50 (HCT116 MTAP+/+): ≤ 6.00

Structure (SMILES): O=c1c(-c2ccc(C3CC3)nc2)c2nc(OCC(F)F)ccc2nn1-c1ccc2ncsc2c1 [Example 147]
- pIC50 (MAT2A homodimer): > 7.00
- pIC50 [1]: 6.00 to 7.00
- pIC50 (HCT116 MTAP−/−): 6.00 to 7.00
- pIC50 (HCT116 MTAP+/+): ≤ 6.00

Structure (SMILES): O=c1c(-c2ccc(OC(F)F)nc2)c2nc(OCC(F)F)ccc2nn1-c1ccc2ncsc2c1 [Example 148]
- pIC50 (MAT2A homodimer): > 7.00
- pIC50 [1]: 6.00 to 7.00
- pIC50 (HCT116 MTAP−/−): 6.00 to 7.00
- pIC50 (HCT116 MTAP+/+): ≤ 6.00

Structure (SMILES): Cn1cc2cc(-n3nc4ccc(OCC(F)F)nc4c(C4=CCC(O)CC4)c3=O)ccc2n1 (stereo not drawn) [Example 149]
- pIC50 (MAT2A homodimer): > 7.00
- pIC50 [1]: > 7.00
- pIC50 (HCT116 MTAP−/−): 6.00 to 7.00
- pIC50 (HCT116 MTAP+/+): ≤ 6.00

Structure (SMILES): Cn1cc2cc(-n3nc4ccc(OCC(F)F)nc4c(-c4ccc5[nH]ccc5c4)c3=O)ccc2n1 [Example 150]
- pIC50 (MAT2A homodimer): > 7.00
- pIC50 [1]: > 7.00
- pIC50 (HCT116 MTAP−/−): > 7.00
- pIC50 (HCT116 MTAP+/+): ≤ 6.00

Structure (SMILES): [2H]C([2H])([2H])Oc1ccc(-c2c(=O)n(-c3ccc4ncsc4c3)nc3ccc(OCC(F)F)nc23)cc1 [Example 151]
- pIC50 (MAT2A homodimer): > 7.00
- pIC50 [1]: > 7.00
- pIC50 (HCT116 MTAP−/−): > 7.00
- pIC50 (HCT116 MTAP+/+): ≤ 6.00

Structure (SMILES): COC1CC=C(c2c(=O)n(-c3ccc4nn(C)cc4c3)nc3ccc(OCC(F)F)nc23)CC1 (stereo not drawn) [Example 152]
- pIC50 (MAT2A homodimer): > 7.00
- pIC50 [1]: > 7.00
- pIC50 (HCT116 MTAP−/−): > 7.00
- pIC50 (HCT116 MTAP+/+): 6.00 to 7.00

Structure (SMILES): Cn1cc2cc(-n3nc4ccc(OCC(F)F)nc4c(-c4ccn[nH]4)c3=O)ccc2n1 [Example 153]
- pIC50 (MAT2A homodimer): 6.00 to 7.00
- pIC50 [1]: < 6.00
- pIC50 (HCT116 MTAP−/−): ≤ 6.00
- pIC50 (HCT116 MTAP+/+): ≤ 6.00

Structure (SMILES): Cn1cc2cc(-n3nc4ccc(NCC(F)(F)F)nc4c(-c4ccc(Cl)cc4)c3=O)ccc2n1 [Example 154]
- pIC50 (MAT2A homodimer): > 7.00
- pIC50 [1]: > 7.00
- pIC50 (HCT116 MTAP−/−): > 7.00
- pIC50 (HCT116 MTAP+/+): ≤ 6.00

Structure (SMILES): Cn1cc2cc(-n3nc4ccc(NC5CC5)nc4c(-c4ccc(Cl)cc4)c3=O)ccc2n1 [Example 155]
- pIC50 (MAT2A homodimer): > 7.00
- pIC50 [1]: > 7.00
- pIC50 (HCT116 MTAP−/−): > 7.00
- pIC50 (HCT116 MTAP+/+): ≤ 6.00

Structure (SMILES): Cn1cc2cc(-n3nc4ccc(NCC(F)F)nc4c(-c4ccc(Cl)cc4)c3=O)ccc2n1 [Example 156]
- pIC50 (MAT2A homodimer): > 7.00
- pIC50 [1]: > 7.00
- pIC50 (HCT116 MTAP−/−): > 7.00
- pIC50 (HCT116 MTAP+/+): ≤ 6.00
